These results are taken from US9452196B2, “Pharmaceutical composition for treating medical conditions and a method for treating alimentary disorders and related diseases” (SOCIEDADE BENEFICENTE DE SENHORAS HOSPITAL SIRIO LIBANES, priority 2009, dated 2016).

Like-named read-outs stand apart in the source and are kept apart here.

Data set [1] addresses T1, CB1 receptor (Homo sapiens, UniProt P21554). As to conditions: in vitro, Dodd et al.; cited from earlier work.
The test system of the next data set is rats and mice. As to conditions: Dodd et al., cited from earlier work.
The target of data set [2] is T2, alpha-2A adrenergic receptor (Homo sapiens, UniProt P08913).
T2 sequence (P08913 1-465): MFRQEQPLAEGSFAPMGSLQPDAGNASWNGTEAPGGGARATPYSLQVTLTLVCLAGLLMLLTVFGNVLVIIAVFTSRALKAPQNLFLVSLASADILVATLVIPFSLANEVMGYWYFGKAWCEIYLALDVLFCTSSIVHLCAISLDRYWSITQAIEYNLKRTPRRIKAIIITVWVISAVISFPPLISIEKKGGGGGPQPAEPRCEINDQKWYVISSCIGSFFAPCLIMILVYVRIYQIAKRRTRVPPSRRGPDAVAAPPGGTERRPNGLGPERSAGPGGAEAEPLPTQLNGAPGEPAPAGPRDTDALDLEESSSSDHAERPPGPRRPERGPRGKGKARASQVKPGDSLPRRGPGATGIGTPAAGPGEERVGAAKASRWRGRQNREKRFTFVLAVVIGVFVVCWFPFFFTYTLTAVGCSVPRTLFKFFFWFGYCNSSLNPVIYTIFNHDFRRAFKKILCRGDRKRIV
Nature of the data set: recognition by conformation-sensitive receptor antibody. It is filed as biochemical. From the text:
(§1) Next the selectivity of hemopressin for CB1 receptors was examined using antibodies sensitive to the conformations of mu and delta opiod receptors, alpha-2A and beta-2 adrenergic receptors, as well as type 1 and 2 Angiotensin II receptors. In the following table, it is possible to identify the specificity of the peptide hemopressin for the CB1 receptor. […] The following data presents the percentage of activity as compared to the control group: […]

The target in data set [3] is T3, type 2 Angiotensin II receptor (AT2) (Homo sapiens, UniProt P50052).
T3 sequence (P50052 1-363): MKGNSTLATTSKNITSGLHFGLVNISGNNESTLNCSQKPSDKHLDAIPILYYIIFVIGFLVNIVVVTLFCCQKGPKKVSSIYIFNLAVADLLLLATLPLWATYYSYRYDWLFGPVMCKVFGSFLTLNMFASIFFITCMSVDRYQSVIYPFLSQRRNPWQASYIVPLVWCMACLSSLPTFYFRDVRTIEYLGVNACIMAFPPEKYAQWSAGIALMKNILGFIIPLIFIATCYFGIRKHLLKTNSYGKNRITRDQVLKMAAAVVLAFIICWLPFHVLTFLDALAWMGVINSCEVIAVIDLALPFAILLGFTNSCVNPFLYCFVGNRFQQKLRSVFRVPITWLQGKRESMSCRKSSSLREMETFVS
The description is as above. The format is biochemical.
Description: as §1

The target in data set [4] is T4, type 1 Angiotensin II receptor (AT1) (Homo sapiens, UniProt P30556).
T4 sequence (P30556 1-359): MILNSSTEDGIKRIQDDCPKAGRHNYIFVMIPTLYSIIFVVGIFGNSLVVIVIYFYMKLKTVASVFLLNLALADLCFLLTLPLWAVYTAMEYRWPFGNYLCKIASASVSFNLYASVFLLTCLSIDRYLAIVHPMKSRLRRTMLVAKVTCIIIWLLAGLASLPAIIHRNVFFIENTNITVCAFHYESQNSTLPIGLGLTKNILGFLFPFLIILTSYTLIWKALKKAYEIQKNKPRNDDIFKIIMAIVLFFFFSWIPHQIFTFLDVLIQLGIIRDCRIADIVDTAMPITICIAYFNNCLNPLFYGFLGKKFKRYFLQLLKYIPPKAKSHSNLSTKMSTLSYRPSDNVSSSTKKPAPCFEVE
The data set is described as above. The format is biochemical.
Description: as §1

Data set [5] concerns the target beta-2 adrenergic receptor (Homo sapiens, UniProt P07550). The data set is described as above. It is filed as biochemical.
Description: as §1

The target of another data set is mu opioid receptor (Homo sapiens, UniProt P35372). The data set is described as above. It is filed as biochemical.
Description: as §1

A further data set addresses delta opioid receptor (Homo sapiens, UniProt P41143). The data set is described as above. The format is biochemical.
Description: as §1

The conditions of data set [6]: cited from earlier work.
Data set [7] has as its target T1, CB1 receptor. The format is biochemical. Here is the method:
A test was then designed, the results of which are illustrated in FIG. 2B, to determine if hemopressin could block the signaling of CB1 receptor. […] Finally, a test was designed to measure whether hemopressin is capable of blocking the increase of levels of phosphorylated ERK1 and ERK2.
Hemopressin was also determined to not only act as an antagonist but as an inverse agonist of CB1 receptors. This was further explored by studying the binding of GTPgammaS, adenylate cyclase activity and MAP kinase phopshorylation. […] This can clearly be seen in FIGS. 3A-C.

The target of data set [8] is T1, CB1 receptor. Nature of the data set: displacement of the ligand rimonabant from CB1 receptors. It is filed as binding. As to conditions: FIG. 2A.
In the next data set the test system is male Wistar rats. Nature of the data set: fat content and body weight in male Wistar rats on 63-day diet. As to conditions: once a day for three days. It is filed as in vivo, rat.
Data set [9] has as its system rats. Nature of the data set: standard swimming test for depression. As to conditions: hemopressin 1 mg/Kg, FIG. 5. The format is in vivo, rat.
The test system of the next data set is 2A neural cells. Nature of the data set: growth of neurites in 2A neural cells. It is filed as cell-based. As to conditions: FIG. 3D; for basal growth of neurites: substance alone.
For the next data set, the system named is diet induced obese rats. Nature of the data set: insulin sensitivity in diet induced obese rats. It is filed as in vivo, rat. As to conditions: 50 micrograms/Kg and 1 mg/Kg hemopressin, FIG. 6.
Data set [10] addresses T1, CB1 receptor. As to conditions: literature; cited from earlier work.
Data set [11] deals with T1, CB1 receptor. The format is biochemical. As to conditions: for percentage of activity as compared to the control group: CB1. From the text: Next the selectivity of hemopressin for CB1 receptors was examined using antibodies sensitive to the conformations of mu and delta opiod receptors, alpha-2A and beta-2 adrenergic receptors, as well as type 1 and 2 Angiotensin II receptors.

Data set [12] concerns rats. Nature of the data set: body weight and fat content after oral administration. It is filed as in vivo, rat. As to conditions: for Body Weight (% of Control) / Periepididymal Adipose Tissue Weight / Retroperitoneal Adipose Tissue Weight / Visceral Adipose Tissue Weight: rats.
A further data set relates to rodents and humans. As to conditions: literature; cited from earlier work.

T1 sequence (P21554 whole entry): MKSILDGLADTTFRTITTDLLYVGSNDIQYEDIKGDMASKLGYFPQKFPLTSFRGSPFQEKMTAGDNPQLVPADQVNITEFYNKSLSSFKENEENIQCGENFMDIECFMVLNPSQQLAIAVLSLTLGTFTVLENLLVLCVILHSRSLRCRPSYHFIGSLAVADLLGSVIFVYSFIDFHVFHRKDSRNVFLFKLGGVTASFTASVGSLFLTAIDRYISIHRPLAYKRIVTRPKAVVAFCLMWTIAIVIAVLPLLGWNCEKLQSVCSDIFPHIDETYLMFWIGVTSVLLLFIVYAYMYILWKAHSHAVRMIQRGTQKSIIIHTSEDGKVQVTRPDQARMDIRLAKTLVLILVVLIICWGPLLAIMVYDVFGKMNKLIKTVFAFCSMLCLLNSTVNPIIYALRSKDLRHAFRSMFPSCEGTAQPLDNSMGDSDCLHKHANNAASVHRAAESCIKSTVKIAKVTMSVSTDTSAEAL
mu opioid receptor, sequence (P35372 whole entry): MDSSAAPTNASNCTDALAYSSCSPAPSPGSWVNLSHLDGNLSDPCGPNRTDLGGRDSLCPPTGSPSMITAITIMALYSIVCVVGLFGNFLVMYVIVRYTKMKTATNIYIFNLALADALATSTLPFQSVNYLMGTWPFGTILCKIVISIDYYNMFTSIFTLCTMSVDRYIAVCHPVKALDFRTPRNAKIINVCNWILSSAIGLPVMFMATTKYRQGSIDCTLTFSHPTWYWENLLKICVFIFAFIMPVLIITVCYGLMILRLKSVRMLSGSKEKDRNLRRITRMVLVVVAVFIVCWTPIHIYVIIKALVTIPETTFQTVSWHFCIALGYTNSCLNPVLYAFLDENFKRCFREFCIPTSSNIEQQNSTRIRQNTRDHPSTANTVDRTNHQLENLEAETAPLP
beta-2 adrenergic receptor, sequence (P07550 whole entry): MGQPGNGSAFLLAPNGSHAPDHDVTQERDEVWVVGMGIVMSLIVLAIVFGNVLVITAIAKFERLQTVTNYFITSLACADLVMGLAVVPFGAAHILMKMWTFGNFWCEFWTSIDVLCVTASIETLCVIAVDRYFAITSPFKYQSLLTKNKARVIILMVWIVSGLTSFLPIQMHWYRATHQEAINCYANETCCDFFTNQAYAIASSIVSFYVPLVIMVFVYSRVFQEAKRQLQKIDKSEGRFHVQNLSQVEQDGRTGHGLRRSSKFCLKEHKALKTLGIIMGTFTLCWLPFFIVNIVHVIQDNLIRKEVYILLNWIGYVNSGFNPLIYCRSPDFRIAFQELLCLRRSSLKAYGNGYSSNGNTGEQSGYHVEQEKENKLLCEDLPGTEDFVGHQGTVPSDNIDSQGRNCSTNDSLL
delta opioid receptor, sequence (P41143 whole entry): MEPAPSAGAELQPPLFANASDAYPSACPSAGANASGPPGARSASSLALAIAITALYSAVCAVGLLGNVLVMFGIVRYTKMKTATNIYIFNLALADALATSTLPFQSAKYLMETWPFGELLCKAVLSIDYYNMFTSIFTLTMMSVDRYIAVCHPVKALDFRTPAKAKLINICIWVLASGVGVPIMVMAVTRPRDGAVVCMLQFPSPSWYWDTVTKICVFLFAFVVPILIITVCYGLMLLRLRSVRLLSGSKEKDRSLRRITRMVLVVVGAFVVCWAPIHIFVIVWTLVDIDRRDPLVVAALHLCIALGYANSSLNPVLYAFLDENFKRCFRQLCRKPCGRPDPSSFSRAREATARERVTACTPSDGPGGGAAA

Take `CC(C)C[C@H](NC(=O)[C@H](Cc1ccccc1)NC(=O)[C@H](CCCCN)NC(=O)[C@H](Cc1ccccc1)NC(=O)[C@H](CC(N)=O)NC(=O)[C@@H](NC(=O)C1CCCN1)C(C)C)C(=O)N[C@@H](CO)C(=O)N[C@@H](Cc1cnc[nH]1)C(=O)O` (stereo partly drawn) [hemopressin]: on CB1 receptor [1], the “CB1 agonist-induced internalization of the CB1 receptor” value was “antagonize CB1 agonist-induced internalization of the CB1 receptor in vitro”. Also, the food intake result in the data set with rats and mice (administered centrally) is “induce hypophagia in vivo when administered centrally”; with rats and mice (administered systemically), “induce hypophagia in vivo when administered systemically”. The “percentage of activity as compared to the control group” value (shortened to “percentage of activity”) is on record as 130.05 ± 7.06% in data set [2] (agonist and HP together); 102.72 ± 2.00% in data set [2] (hemopressin alone); 137.10 ± 1.91% in data set [3] (agonist and HP together); 99.65 ± 4.71% in data set [3] (hemopressin alone); 140.01 ± 1.21% in [4] (agonist and HP together); 109.65 ± 1.31% in data set [4] (hemopressin alone). The “percentage of activity” value in [5] (agonist and HP together) came to 157.40 ± 8.15%; in data set [5] (hemopressin alone), 103.85 ± 9.29%; on mu opioid receptor (agonist and HP together), 141.09 ± 6.46%; on mu opioid receptor (hemopressin alone), 105.62 ± 1.09%; at delta opioid receptor (agonist and HP together), 131.08 ± 3.35%; at delta opioid receptor (hemopressin alone) it was 100.65 ± 4.29%. Moreover, the “percentage of activity” value worked out at 102.06 ± 5.91% at CB1 receptor [11] (agonist and HP together); 72.30 ± 3.32% on CB1 receptor [11] (hemopressin alone). The antinociceptive effects result in data set [6] (Dale et al., literature) was “nonopioid antinociceptive effects”. The treatment of hyperalgesia entry in data set [6] (administered locally or systemically, Heimann et al.) is listed as “effective in treating hyperalgesia”. The “block of the increase of GTPgammaS” value at CB1 receptor [7] is recorded as “capable of blocking the increase of GTPgammaS”. Besides, the “block of the increase of levels of phosphorylated ERK1 and ERK2” value at CB1 receptor [7] is recorded as “behave similarly to rimonabant”. The “block of decreases in cAMP levels” value on CB1 receptor [7] (against agonists, FIG. 2C) is on record as “block decreases in cAMP levels with efficiency similar to that of rimonabant”. In addition, the “basal signaling, binding of GTPgammaS” value on CB1 receptor [7] (without agonist, FIG. 3A) was “causes decreases in signaling below the basal levels”. Further, at CB1 receptor [7] (without agonist, FIG. 3B), the “basal signaling, adenylate cyclase activity” value is given as “causes decreases in signaling below the basal levels”. The “basal signaling, MAP kinase phosphorylation” value on CB1 receptor [7] (without agonist, FIG. 3C) is recorded as “causes decreases in signaling below the basal levels”. The “displacement of rimonabant from CB1 receptors” value on CB1 receptor [8] is “capable of displacing rimonabant from CB1 receptors”. Moreover, the “Body Weight (% of Control)” value is 98.62 ± 13.33 % of Control in the data set on male Wistar rats (63-day ad libitum diet) and 96.89 ± 1.25 % of Control in the data set on rats [12]. In addition, the results for the “Periepididymal Adipose Tissue Weight” value in the data set with male Wistar rats (63-day ad libitum diet) and in the data set on rats [12] were 4.77 ± 1.06 g and 7.16 ± 1.36 g, respectively. The “Retroperitoneal Adipose Tissue Weight” value in the data set with male Wistar rats (63-day ad libitum diet) was found to be 6.12 ± 2.09 g; with rats [12], 6.26 ± 1.62 g. Further, the entries for the “Visceral Adipose Tissue Weight” value in the data set with male Wistar rats (63-day ad libitum diet) and in the data set with rats [12] were 2.77 ± 0.58 g and 4.31 ± 0.61 g, respectively. In the data set with male Wistar rats, the “periepididymal and visceral fat content compared to saline control” value is “significantly reduced periepididymal and visceral fat content”. In the data set with rats [9], the “symptoms of depression in standard swimming test” value is on record as “showed no such symptoms”. For the same compound, in the data set with 2A neural cells, the “growth of neurites as measured against agonists” value is on record as “efficiently blocks the growth of neurites”. Besides, the “basal growth of neurites” value in the data set on 2A neural cells is “capable of decreasing the basal growth of neurites”. Further, the insulin sensitivity entry in the data set with diet induced obese rats is on record as “significantly improved insulin sensitivity”. Further, the “action at the CB1 receptor” value at CB1 receptor [10] is on record as “CB1 receptor inverse agonist”. Besides, the “block of the HU-210 induced increase in the recognition of the antibody” value on CB1 receptor [11] is “significantly blocked”. Also, at CB1 receptor [11] (substance alone, FIG. 1A/1B), the “recognition of a CB1 specific antibody” value is recorded as “decrease the recognition of a CB1 specific antibody”. Moreover, at CB1 receptor [11] (versus mu and delta opioid, alpha-2A, beta-2, AT1, AT2 receptors), the “selectivity for CB1 receptors” value is on record as “highly selective for CB1 receptors”. In addition, the retroperitoneal fat content result with rats [12] was “significantly reduced by hemopressin only”. Further, the “total body weight and periepididymal fat content” value in the data set with rats [12] is given as “significantly reduce”.

As to “VDPENFRLLGNM (listed as Rattus sp.) [non-cannabinoid peptide, reference compound]”, in the data set on rats [12], the fat content result was “no effect”, the “Body Weight (% of Control)” value is reported as 100.65 ± 8.07 % of Control, the “Periepididymal Adipose Tissue Weight” value worked out at 9.38 ± 0.95 g and the “Retroperitoneal Adipose Tissue Weight” value was found to be 8.80 ± 1.15 g. Further, the “Visceral Adipose Tissue Weight” value in the data set on rats [12] is given as 4.81 ± 1.25 g.

Turning to `CCCCCCC(C)(C)c1cc(O)c2c(c1)OC(C)(C)[C@@H]1CC=C(CO)C[C@@H]21` [HU-210, reference compound], the “basal growth of neurites” value in the data set on 2A neural cells is “induction of the growth of neurites”. Moreover, at CB1 receptor [11], the “recognition of a CB1 specific antibody” value is given as “increase”.

With `Cc1c(C(=O)NN2CCCCC2)nn(-c2ccc(Cl)cc2Cl)c1-c1ccc(Cl)cc1` [rimonabant, reference compound], the “symptoms of depression in standard swimming test” value with rats [9] is reported as “caused the expected depression”. Moreover, the weight reduction entry in the data set on rodents and humans is listed as “weight-reducing effects over extended periods”. Further, the “growth of neurites as measured against agonists” value in the data set on 2A neural cells is “efficiently blocks the growth of neurites”. In the data set on diet induced obese rats, the insulin sensitivity result is on record as “did not produce similar results”. In the data set on rats [12], the “Body Weight (% of Control)” value is given as 98.92 ± 0.95 % of Control, the “Periepididymal Adipose Tissue Weight” value is given as 5.57 ± 1.03 g, the “Retroperitoneal Adipose Tissue Weight” value is 6.89 ± 1.31 g and the “Visceral Adipose Tissue Weight” value is listed as 3.91 ± 0.78 g.
